Source: publication PMC8222254, “Self-assembly of an anion receptor with metal-dependent kinase inhibition and potent in vitro anti-cancer properties” (Nature Communications, 2021)
Values joined by “and” are separate entries in the source; they are usually repeats but may differ in a detail not shown here. Equal entries are not always repeated.

Assays:
Assay in all cases: Kinase inhibition screen, cell-free 33P ATP assay at 10 μM
Type in all cases: biochemical
[1] = target: 140 purified human kinases (Homo sapiens, UniProt Q15303)
Procedure, shortened: (§1)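 Each complex tested in duplicate at 10 μM; cell-free radiometric assay using ^33P ATP on purified enzymes. Hits mapped by HGNC symbol onto the kinome tree.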

[2] = target: 140 purified human kinases (Homo sapiens, UniProt O95747); settings: for % Activity Run 1 / % Activity Run 2: 10 µM
Procedure, shortened: as §1

[3] = target: 140 purified human kinases (Homo sapiens, UniProt Q9P1W9)
Procedure, shortened: as §1

[4] = target: 140 purified human kinases (Homo sapiens, UniProt Q13882); settings: BRK
Procedure, shortened: as §1

[5] = target: 140 purified human kinases (Homo sapiens, UniProt Q9P286); settings: for % Activity Run 1 / % Activity Run 2: 10 µM
Procedure, shortened: as §1

[6] = target: 140 purified human kinases (Homo sapiens, UniProt Q13177)
Procedure, shortened: as §1

[7] = target: T1, 140 purified human kinases (Homo sapiens, UniProt P54760)
T1 sequence (P54760 16-987): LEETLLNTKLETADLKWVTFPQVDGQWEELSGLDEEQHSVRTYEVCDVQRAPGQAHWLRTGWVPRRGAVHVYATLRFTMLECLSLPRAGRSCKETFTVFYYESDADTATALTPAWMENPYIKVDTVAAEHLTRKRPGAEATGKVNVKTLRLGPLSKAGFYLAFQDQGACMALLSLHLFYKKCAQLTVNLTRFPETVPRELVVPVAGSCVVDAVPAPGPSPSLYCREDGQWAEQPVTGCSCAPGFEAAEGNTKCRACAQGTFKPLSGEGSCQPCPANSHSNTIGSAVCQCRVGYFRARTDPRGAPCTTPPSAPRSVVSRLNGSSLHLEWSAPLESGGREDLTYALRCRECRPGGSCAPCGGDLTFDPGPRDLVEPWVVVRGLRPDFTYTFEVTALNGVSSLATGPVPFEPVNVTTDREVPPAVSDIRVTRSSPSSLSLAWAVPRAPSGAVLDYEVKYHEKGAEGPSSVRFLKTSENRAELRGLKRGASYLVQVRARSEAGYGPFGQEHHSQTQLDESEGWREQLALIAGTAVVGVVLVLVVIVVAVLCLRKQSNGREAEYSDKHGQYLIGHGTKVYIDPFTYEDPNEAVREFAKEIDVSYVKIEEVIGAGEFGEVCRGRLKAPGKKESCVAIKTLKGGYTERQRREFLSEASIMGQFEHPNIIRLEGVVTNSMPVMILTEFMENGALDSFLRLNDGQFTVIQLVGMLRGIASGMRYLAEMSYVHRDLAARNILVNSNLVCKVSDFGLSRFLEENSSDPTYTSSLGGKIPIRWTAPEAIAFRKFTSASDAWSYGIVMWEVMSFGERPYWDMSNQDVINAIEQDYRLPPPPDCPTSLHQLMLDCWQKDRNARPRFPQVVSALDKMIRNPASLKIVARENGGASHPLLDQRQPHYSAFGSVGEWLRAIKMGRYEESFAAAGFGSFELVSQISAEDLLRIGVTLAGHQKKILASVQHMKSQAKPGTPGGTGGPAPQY
Procedure, shortened: as §1

[8] = target: 140 purified human kinases (Homo sapiens, UniProt P54764)
Procedure, shortened: as §1

[9] = target: 140 purified human kinases (Homo sapiens, UniProt Q9Y2K2)
Procedure, shortened: as §1

[10] = target: 140 purified human kinases (Homo sapiens, UniProt P17612); settings: PKA
Procedure, shortened: as §1

[11] = target: 140 purified human kinases (Homo sapiens, UniProt Q96RR4); settings: CAMKKb
Procedure, shortened: as §1

[12] = target: 140 purified human kinases (Homo sapiens, UniProt Q13131); settings: AMPK (hum); for % Activity inhibition Mean / % Activity inhibition Run 1 / % Activity inhibition Run 2 / % Activity remaining Run 1 / % Activity remaining Run 2: 10 µM
Procedure, shortened: as §1

Sequence of 140 purified human kinases (Homo sapiens, UniProt Q13131) (Q13131 whole entry): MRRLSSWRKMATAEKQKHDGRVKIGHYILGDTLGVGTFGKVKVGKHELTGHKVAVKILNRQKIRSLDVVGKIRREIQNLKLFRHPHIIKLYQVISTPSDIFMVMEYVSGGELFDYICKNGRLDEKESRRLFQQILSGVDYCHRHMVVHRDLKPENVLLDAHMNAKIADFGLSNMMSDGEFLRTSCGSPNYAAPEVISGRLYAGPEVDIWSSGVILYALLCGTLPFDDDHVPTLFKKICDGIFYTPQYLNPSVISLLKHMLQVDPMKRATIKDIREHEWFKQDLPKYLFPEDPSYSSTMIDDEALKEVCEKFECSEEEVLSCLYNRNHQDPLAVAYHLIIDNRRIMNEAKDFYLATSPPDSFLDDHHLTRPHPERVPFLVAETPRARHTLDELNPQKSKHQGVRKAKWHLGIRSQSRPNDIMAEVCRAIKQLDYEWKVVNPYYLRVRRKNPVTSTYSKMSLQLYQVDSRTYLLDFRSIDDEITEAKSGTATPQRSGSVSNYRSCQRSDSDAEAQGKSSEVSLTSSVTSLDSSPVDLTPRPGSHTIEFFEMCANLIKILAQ
Sequence of 140 purified human kinases (Homo sapiens, UniProt Q9P1W9) (Q9P1W9 whole entry): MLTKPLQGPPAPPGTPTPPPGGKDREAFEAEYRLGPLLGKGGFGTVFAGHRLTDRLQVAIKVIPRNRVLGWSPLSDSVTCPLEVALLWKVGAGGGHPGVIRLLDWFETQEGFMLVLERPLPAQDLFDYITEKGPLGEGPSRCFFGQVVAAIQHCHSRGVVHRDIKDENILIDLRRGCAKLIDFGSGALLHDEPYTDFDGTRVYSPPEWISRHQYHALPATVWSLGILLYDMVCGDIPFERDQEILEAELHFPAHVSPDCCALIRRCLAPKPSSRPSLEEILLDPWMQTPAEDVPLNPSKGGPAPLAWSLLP
Sequence of 140 purified human kinases (Homo sapiens, UniProt Q96RR4) (Q96RR4 whole entry): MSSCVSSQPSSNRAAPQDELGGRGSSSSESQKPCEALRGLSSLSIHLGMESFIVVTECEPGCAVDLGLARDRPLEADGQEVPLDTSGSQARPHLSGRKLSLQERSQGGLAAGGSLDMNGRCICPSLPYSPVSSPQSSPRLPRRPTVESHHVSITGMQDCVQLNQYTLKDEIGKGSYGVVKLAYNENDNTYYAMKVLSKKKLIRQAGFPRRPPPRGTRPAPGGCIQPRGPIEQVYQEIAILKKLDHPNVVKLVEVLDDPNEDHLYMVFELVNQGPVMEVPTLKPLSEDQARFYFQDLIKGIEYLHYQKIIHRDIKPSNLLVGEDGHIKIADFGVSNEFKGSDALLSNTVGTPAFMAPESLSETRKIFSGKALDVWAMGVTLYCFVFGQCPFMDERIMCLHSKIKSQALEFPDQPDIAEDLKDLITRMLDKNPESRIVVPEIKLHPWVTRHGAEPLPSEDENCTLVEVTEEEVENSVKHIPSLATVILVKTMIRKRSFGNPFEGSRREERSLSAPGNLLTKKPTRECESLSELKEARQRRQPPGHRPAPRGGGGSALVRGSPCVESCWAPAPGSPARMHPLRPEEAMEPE
Sequence of 140 purified human kinases (Homo sapiens, UniProt Q9Y2K2) (Q9Y2K2 whole entry): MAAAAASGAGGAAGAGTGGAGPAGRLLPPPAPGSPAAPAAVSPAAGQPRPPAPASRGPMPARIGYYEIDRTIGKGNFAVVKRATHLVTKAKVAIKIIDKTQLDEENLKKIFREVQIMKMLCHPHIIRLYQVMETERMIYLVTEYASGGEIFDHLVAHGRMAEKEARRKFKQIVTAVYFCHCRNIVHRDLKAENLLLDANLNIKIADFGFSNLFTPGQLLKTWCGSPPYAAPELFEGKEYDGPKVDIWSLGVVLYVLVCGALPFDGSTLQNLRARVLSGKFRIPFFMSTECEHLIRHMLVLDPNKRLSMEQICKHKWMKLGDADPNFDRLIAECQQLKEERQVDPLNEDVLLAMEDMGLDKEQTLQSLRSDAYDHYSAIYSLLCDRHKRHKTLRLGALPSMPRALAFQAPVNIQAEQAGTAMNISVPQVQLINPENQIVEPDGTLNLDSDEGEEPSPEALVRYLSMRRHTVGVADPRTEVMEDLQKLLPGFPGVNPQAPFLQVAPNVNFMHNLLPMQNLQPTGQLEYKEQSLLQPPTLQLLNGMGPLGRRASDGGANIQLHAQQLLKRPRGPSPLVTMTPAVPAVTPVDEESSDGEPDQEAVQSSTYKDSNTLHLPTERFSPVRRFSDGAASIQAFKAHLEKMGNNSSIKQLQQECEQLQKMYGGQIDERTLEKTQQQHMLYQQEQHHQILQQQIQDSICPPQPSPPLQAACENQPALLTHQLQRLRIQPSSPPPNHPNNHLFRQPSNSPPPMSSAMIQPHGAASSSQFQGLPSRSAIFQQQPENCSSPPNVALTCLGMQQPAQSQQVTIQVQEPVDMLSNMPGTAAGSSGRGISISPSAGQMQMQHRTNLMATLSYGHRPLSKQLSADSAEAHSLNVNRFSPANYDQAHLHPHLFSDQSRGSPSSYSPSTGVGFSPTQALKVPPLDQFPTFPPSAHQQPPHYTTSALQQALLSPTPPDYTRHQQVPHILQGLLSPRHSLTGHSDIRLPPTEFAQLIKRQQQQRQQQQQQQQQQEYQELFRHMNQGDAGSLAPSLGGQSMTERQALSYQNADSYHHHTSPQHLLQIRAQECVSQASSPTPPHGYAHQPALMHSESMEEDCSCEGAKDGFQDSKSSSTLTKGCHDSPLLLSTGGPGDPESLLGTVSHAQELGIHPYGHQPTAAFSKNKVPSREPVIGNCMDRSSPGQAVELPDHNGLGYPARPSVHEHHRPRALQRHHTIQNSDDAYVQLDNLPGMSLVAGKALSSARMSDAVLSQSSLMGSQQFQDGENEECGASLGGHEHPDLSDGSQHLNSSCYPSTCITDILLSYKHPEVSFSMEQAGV
Sequence of 140 purified human kinases (Homo sapiens, UniProt Q13177) (Q13177 whole entry): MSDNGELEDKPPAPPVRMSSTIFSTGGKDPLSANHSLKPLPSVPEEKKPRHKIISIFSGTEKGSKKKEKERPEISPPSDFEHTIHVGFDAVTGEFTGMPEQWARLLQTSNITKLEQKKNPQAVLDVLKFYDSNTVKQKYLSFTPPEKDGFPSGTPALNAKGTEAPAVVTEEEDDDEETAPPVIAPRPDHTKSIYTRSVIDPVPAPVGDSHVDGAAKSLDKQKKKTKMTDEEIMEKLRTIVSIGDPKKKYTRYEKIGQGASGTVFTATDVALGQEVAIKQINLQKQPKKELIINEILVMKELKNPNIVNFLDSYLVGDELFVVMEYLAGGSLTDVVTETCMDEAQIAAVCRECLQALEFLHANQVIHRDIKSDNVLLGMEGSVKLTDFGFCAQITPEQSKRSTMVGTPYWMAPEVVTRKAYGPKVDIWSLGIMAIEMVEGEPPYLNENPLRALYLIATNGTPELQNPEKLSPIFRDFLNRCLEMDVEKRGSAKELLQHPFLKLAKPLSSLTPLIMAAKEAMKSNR
Sequence of 140 purified human kinases (Homo sapiens, UniProt Q9P286) (Q9P286 whole entry): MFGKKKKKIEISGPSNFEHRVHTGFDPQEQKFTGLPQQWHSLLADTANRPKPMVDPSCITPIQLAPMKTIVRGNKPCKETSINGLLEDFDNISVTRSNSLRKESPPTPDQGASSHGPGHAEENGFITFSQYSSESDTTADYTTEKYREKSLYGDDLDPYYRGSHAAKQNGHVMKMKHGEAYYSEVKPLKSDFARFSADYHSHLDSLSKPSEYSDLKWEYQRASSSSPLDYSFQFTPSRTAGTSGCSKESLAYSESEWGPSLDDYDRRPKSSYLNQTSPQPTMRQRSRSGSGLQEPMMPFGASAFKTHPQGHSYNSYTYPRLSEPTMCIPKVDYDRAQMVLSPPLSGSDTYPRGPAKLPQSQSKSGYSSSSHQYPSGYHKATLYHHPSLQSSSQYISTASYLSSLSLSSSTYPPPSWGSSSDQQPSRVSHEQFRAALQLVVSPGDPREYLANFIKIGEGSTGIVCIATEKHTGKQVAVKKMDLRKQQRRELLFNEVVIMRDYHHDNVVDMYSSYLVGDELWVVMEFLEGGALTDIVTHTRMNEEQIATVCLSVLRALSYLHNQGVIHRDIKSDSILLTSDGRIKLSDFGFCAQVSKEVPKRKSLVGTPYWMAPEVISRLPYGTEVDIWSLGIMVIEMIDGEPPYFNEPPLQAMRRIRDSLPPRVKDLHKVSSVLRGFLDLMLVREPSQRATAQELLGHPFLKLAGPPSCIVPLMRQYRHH
Sequence of 140 purified human kinases (Homo sapiens, UniProt P54764) (P54764 20-986): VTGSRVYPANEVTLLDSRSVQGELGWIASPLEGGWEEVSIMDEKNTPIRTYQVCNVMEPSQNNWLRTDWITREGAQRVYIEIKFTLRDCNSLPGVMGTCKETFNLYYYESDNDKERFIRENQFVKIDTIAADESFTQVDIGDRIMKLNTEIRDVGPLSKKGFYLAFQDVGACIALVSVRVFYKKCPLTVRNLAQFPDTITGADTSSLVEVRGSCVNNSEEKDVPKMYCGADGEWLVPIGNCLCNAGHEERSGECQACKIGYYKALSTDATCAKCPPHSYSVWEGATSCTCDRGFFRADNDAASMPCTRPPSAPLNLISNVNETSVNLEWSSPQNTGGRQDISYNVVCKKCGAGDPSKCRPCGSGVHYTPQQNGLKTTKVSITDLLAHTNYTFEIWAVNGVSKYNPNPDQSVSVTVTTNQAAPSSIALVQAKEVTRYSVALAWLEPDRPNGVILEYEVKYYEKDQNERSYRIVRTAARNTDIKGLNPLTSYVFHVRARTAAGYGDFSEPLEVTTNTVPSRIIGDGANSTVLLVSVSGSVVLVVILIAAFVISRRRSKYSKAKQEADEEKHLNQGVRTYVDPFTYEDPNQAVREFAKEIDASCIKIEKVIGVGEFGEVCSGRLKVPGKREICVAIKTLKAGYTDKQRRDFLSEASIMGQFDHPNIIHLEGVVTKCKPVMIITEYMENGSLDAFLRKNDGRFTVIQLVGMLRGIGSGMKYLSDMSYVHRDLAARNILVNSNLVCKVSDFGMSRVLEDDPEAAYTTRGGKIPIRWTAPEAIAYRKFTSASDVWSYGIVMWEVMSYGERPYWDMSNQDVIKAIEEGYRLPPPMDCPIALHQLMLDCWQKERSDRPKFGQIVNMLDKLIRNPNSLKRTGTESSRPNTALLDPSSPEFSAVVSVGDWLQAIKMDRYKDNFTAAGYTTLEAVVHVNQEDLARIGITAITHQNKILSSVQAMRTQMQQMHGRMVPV

For CC(=O)[O-].CC(=O)[O-].CC(=O)[O-].CC(=O)[O-].CC(=O)[O-].CC(=O)[O-].[Zn+2].[Zn+2].[Zn+2].c1ccc(-c2csc(NCCN(CCNc3nc(-c4ccccn4)cs3)CCNc3nc(-c4ccccn4)cs3)n2)nc1.c1ccc(-c2csc(NCCN(CCNc3nc(-c4ccccn4)cs3)CCNc3nc(-c4ccccn4)cs3)n2)nc1 [[L2Zn3]6+], the “% Inhibition, Mean” value ([1]; HER4) was 3.65%, the mean % activity ([1]; HER4) was 96% and the “% activity” value ([1]; HER4, duplicate runs) was 88% and 105%. For the same compound, the “% Activation, Mean value” ([2]; OSR1) was 38%, the “% Inhibition, Mean” value ([2]; OSR1) was -38% and the “% Inhibition, Run 1 / Run 2” value ([2]; OSR1) was -37% and -40%. For the same compound, the mean % activity ([2]; OSR1) was 138%, the “% Activity Run 1” value ([2]; OSR1) was 137.0% and the “% Activity Run 2” value ([2]; OSR1) was 140.0%. For the same compound, the “% activity” value ([2]; OSR1, duplicate runs) was 137% and 140%, the “% Inhibition, Mean” value ([3]; PIM2) was 1.85% and the mean % activity ([3]; PIM2) was 98%. The “% activity” value ([3]; PIM2, duplicate runs) was 87% and 109%, the “% Inhibition, Mean” value [4] was 76% and the “% Inhibition, Run 1 / Run 2” value [4] was 83% and 69%. The mean % activity [4] was 24%, the “% activity” value ([4]; duplicate runs) was 17% and 31% and the “% Activation, Mean value” ([5]; PAK5) was 20%. For the same compound, the “% Inhibition, Mean” value ([5]; PAK5) was -20%, the mean % activity ([5]; PAK5) was 120% and the “% Activity Run 1” value ([5]; PAK5) was 110.0%. The “% Activity Run 2” value ([5]; PAK5) was 130.0%, the “% activity” value ([5]; PAK5, duplicate runs) was 110% and 130% and the “% Inhibition, Mean” value ([6]; PAK2) was 22%. For the same compound, the “% Inhibition, Run 1 / Run 2” value ([6]; PAK2) was 23% and 21%, the mean % activity ([6]; PAK2) was 78% and the “% activity” value ([6]; PAK2, duplicate runs) was 77% and 79%. The “% Inhibition, Mean” value ([7]; EPH-B4) was 52%, the “% Inhibition, Run 1 / Run 2” value ([7]; EPH-B4) was 52% and the mean % activity ([7]; EPH-B4) was 48%. For the same compound, the “% activity” value ([7]; EPH-B4, duplicate runs) was 48%, the “% Inhibition, Mean” value ([8]; EPH-A4) was 27% and the “% Inhibition, Run 1 / Run 2” value ([8]; EPH-A4) was 30% and 25%. The mean % activity ([8]; EPH-A4) was 73%, the “% activity” value ([8]; EPH-A4, duplicate runs) was 70% and 75% and the “% Inhibition, Mean” value ([9]; SIK3) was 39%. For the same compound, the “% Inhibition, Run 1 / Run 2” value ([9]; SIK3) was 45% and 33%, the mean % activity ([9]; SIK3) was 61% and the “% activity” value ([9]; SIK3, duplicate runs) was 55% and 67%. The “% Activation, Mean value” [10] was 7%, the “% Inhibition, Mean” value [10] was -7% and the mean % activity [10] was 107%. The “% activity” value ([10]; duplicate runs) was 101% and 114%, the “% Inhibition, Mean” value [11] was 44% and the “% Inhibition, Run 1 / Run 2” value [11] was 44%. For the same compound, the mean % activity [11] was 56%, the “% activity” value ([11]; duplicate runs) was 57% and 56% and the “% Inhibition, Mean” value [12] was 93%. For the same compound, the “% Inhibition, Run 1 / Run 2” value [12] was 94% and 92%, the mean % activity [12] was 7% and the “% Activity inhibition Mean” value [12] was 93.0%. For the same compound, the “% Activity inhibition Run 1” value [12] was 94%, the “% Activity inhibition Run 2” value [12] was 92% and the “% Activity remaining Run 1” value [12] was 6%. For the same compound, the “% Activity remaining Run 2” value [12] was 8% and the “% activity” value ([12]; duplicate runs) was 6.4% and 8%.

With [Cu+2].[Cu+2].[Cu+2].c1ccc(-c2csc(NCCN(CCNc3nc(-c4ccccn4)cs3)CCNc3nc(-c4ccccn4)cs3)n2)nc1.c1ccc(-c2csc(NCCN(CCNc3nc(-c4ccccn4)cs3)CCNc3nc(-c4ccccn4)cs3)n2)nc1 [[L2Cu3]6+] the “% Inhibition Run 1” value ([1]; HER4) was 32.7%, the “% Inhibition Run 2” value ([1]; HER4) was 23.3% and the “% Inhibition, Mean” value ([1]; HER4) was 28%. The mean % activity ([1]; HER4) was 72%, the “% activity” value ([1]; HER4, Run 1) was 67.3% and the “% activity” value ([1]; HER4, Run 2) was 76.7%. The “% Activation, Mean value” ([2]; OSR1) was 48%, the “% Inhibition Run 1” value ([2]; OSR1) was -39.6% and the “% Inhibition Run 2” value ([2]; OSR1) was -55.9%. The “% Inhibition, Mean” value ([2]; OSR1) was -48%, the mean % activity ([2]; OSR1) was 148% and the “% activity” value ([2]; OSR1, Run 1) was 139.6%. The “% activity” value ([2]; OSR1, Run 2) was 155.9%, the “% Activity Run 1” value ([2]; OSR1) was 139.60% and the “% Activity Run 2” value ([2]; OSR1) was 155.90%. For the same compound, the “% Inhibition Run 1” value ([3]; PIM2) was -3.6%, the “% Inhibition Run 2” value ([3]; PIM2) was 7% and the “% Inhibition, Mean” value ([3]; PIM2) was 1.7%. For the same compound, the mean % activity ([3]; PIM2) was 98%, the “% activity” value ([3]; PIM2, Run 1) was 103.6% and the “% activity” value ([3]; PIM2, Run 2) was 93%. For the same compound, the “% Inhibition Run 1” value [4] was 67.9%, the “% Inhibition Run 2” value [4] was 57.6% and the “% Inhibition, Mean” value [4] was 63%. For the same compound, the mean % activity [4] was 37%, the “% activity” value ([4]; Run 1) was 32.1% and the “% activity” value ([4]; Run 2) was 42.4%. The “% Activation, Mean value” ([5]; PAK5) was 10%, the “% Inhibition Run 1” value ([5]; PAK5) was -1.8% and the “% Inhibition Run 2” value ([5]; PAK5) was -17.5%. For the same compound, the “% Inhibition, Mean” value ([5]; PAK5) was -10%, the mean % activity ([5]; PAK5) was 110% and the “% activity” value ([5]; PAK5, Run 1) was 101.8%. For the same compound, the “% activity” value ([5]; PAK5, Run 2) was 117.5%, the “% Activity Run 1” value ([5]; PAK5) was 101.80% and the “% Activity Run 2” value ([5]; PAK5) was 117.50%. The “% Inhibition Run 1” value ([6]; PAK2) was 44.4%, the “% Inhibition Run 2” value ([6]; PAK2) was 32.1% and the “% Inhibition, Mean” value ([6]; PAK2) was 38%. For the same compound, the mean % activity ([6]; PAK2) was 62%, the “% activity” value ([6]; PAK2, Run 1) was 55.6% and the “% activity” value ([6]; PAK2, Run 2) was 67.9%. The “% Inhibition Run 1” value ([7]; EPH-B4) was 53.6%, the “% Inhibition Run 2” value ([7]; EPH-B4) was 47.1% and the “% Inhibition, Mean” value ([7]; EPH-B4) was 50%. For the same compound, the mean % activity ([7]; EPH-B4) was 50%, the “% activity” value ([7]; EPH-B4, Run 1) was 46.4% and the “% activity” value ([7]; EPH-B4, Run 2) was 52.9%. The “% Inhibition Run 1” value ([8]; EPH-A4) was 4.5%, the “% Inhibition Run 2” value ([8]; EPH-A4) was -3.1% and the “% Inhibition, Mean” value ([8]; EPH-A4) was 0.7%. The mean % activity ([8]; EPH-A4) was 99%, the “% activity” value ([8]; EPH-A4, Run 1) was 95.5% and the “% activity” value ([8]; EPH-A4, Run 2) was 103.1%. For the same compound, the “% Inhibition Run 1” value ([9]; SIK3) was 48.7%, the “% Inhibition Run 2” value ([9]; SIK3) was 52.1% and the “% Inhibition, Mean” value ([9]; SIK3) was 50%. For the same compound, the mean % activity ([9]; SIK3) was 50%, the “% activity” value ([9]; SIK3, Run 1) was 51.3% and the “% activity” value ([9]; SIK3, Run 2) was 47.9%. The “% Inhibition Run 1” value [10] was 46.4%, the “% Inhibition Run 2” value [10] was 48.2% and the “% Inhibition, Mean” value [10] was 47%. For the same compound, the mean % activity [10] was 53%, the “% activity” value ([10]; Run 1) was 53.6% and the “% activity” value ([10]; Run 2) was 51.8%. For the same compound, the “% Inhibition Run 1” value [11] was 42.1%, the “% Inhibition Run 2” value [11] was 54.8% and the “% Inhibition, Mean” value [11] was 48%. The mean % activity [11] was 52%, the “% activity” value ([11]; Run 1) was 57.9% and the “% activity” value ([11]; Run 2) was 45.2%. For the same compound, the “% Inhibition Run 1” value [12] was 97.2%, the “% Inhibition Run 2” value [12] was 98.1% and the “% Inhibition, Mean” value [12] was 98%. For the same compound, the mean % activity [12] was 2.35%, the “% activity” value ([12]; Run 1) was 2.8% and the “% activity” value ([12]; Run 2) was 1.9%. For the same compound, the “% Activity inhibition Mean” value [12] was 97.7%, the “% Activity inhibition Run 1” value [12] was 97.2% and the “% Activity inhibition Run 2” value [12] was 98.1%. For the same compound, the “% Activity remaining Run 1” value [12] was 2.80% and the “% Activity remaining Run 2” value [12] was 1.90%.
